# Test results reported in the supplement of paper PMC11451515.
# System: P12-Ichikawa
# Test: cell viability relative to DMSO control; higher = less cytotoxic
# Conditions: 48 h
# Method in brief: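 Viability was expressed as a per-plate percentage of DMSO wells, with cell-free wells as background. Leukemia cells (NOMO1 or SEM at 500 cells/well, P12-Ichikawa at 1000 cells/well) were adapted for at least four passages in each medium and seeded in 1536-well plates (5 μl). Library compounds in DMSO were pin-dosed over an 11-point threefold series from 47 μM to 0.79 nM, and CellTiter-Glo One luminescence was read after 48 h at 37°C.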
# [1] = HPLM + 10% dialyzed FBS, 0.000781 µM
# [2] = HPLM + 10% dialyzed FBS, 0.00234 µM
# [3] = HPLM + 10% dialyzed FBS, 0.00702 µM
# [4] = HPLM + 10% dialyzed FBS, 0.0211 µM
# [5] = HPLM + 10% dialyzed FBS, 0.0632 µM
# [6] = HPLM + 10% dialyzed FBS, 0.19 µM
# [7] = HPLM + 10% dialyzed FBS, 0.569 µM
# [8] = HPLM + 10% dialyzed FBS, 1.71 µM
# [9] = HPLM + 10% dialyzed FBS, 5.12 µM
# [10] = HPLM + 10% dialyzed FBS, 15.4 µM
# [11] = HPLM + 10% dialyzed FBS, 46.1 µM
# [12] = RPMI 5 mM glucose + 10% FBS, 0.000781 µM
# [13] = RPMI 5 mM glucose + 10% FBS, 0.00234 µM
# [14] = RPMI 5 mM glucose + 10% FBS, 0.00702 µM
# [15] = RPMI 5 mM glucose + 10% FBS, 0.0211 µM
# [16] = RPMI 5 mM glucose + 10% FBS, 0.0632 µM
# [17] = RPMI 5 mM glucose + 10% FBS, 0.19 µM
# [18] = RPMI 5 mM glucose + 10% FBS, 0.569 µM
# [19] = RPMI 5 mM glucose + 10% FBS, 1.71 µM
# [20] = RPMI 5 mM glucose + 10% FBS, 5.12 µM
# [21] = RPMI 5 mM glucose + 10% FBS, 15.4 µM
# [22] = RPMI 5 mM glucose + 10% FBS, 46.1 µM
# [23] = RPMI 5 mM glucose + 10% dialyzed FBS, 0.000781 µM
# [24] = RPMI 5 mM glucose + 10% dialyzed FBS, 0.00234 µM
# [25] = RPMI 5 mM glucose + 10% dialyzed FBS, 0.00702 µM
# [26] = RPMI 5 mM glucose + 10% dialyzed FBS, 0.0211 µM
# [27] = RPMI 5 mM glucose + 10% dialyzed FBS, 0.0632 µM
# [28] = RPMI 5 mM glucose + 10% dialyzed FBS, 0.19 µM
# [29] = RPMI 5 mM glucose + 10% dialyzed FBS, 0.569 µM
# [30] = RPMI 5 mM glucose + 10% dialyzed FBS, 1.71 µM
# [31] = RPMI 5 mM glucose + 10% dialyzed FBS, 5.12 µM
# [32] = RPMI 5 mM glucose + 10% dialyzed FBS, 15.4 µM
# [33] = RPMI 5 mM glucose + 10% dialyzed FBS, 46.1 µM
Compound,cell viability [1] [%],cell viability [2] [%],cell viability [3] [%],cell viability [4] [%],cell viability [5] [%],cell viability [6] [%],cell viability [7] [%],cell viability [8] [%],cell viability [9] [%],cell viability [10] [%],cell viability [11] [%],cell viability [12] [%],cell viability [13] [%],cell viability [14] [%],cell viability [15] [%],cell viability [16] [%],cell viability [17] [%],cell viability [18] [%],cell viability [19] [%],cell viability [20] [%],cell viability [21] [%],cell viability [22] [%],cell viability [23] [%],cell viability [24] [%],cell viability [25] [%],cell viability [26] [%],cell viability [27] [%],cell viability [28] [%],cell viability [29] [%],cell viability [30] [%],cell viability [31] [%],cell viability [32] [%],cell viability [33] [%]
CCCCCCCCCCCCCC(=O)N[C@H](CO)[C@H](O)c1ccc([N+](=O)[O-])cc1,99.4,90.6,100,104,102,102,105,79.7,40.3,2.44,1.98,96.9,94.2,95.5,92.7,102,84.9,89.1,55.1,21.1,3.47,1.51,89.4,81.5,90.9,94,94.8,85.8,93.4,52,24.6,4.09,2.4
Oc1nc(-c2ccc(C(F)(F)F)cc2)nc2c1CSCC2,102,109,96.1,102,109,108,106,98.1,100,91.5,94,101,102,100,84.2,107,99.5,108,99,87.7,96.8,85.4,95.1,90.9,95.5,86.3,90.7,94.7,94.4,99,87.6,87.8,79.3
CC(C)c1cc(C(C)C)c(CC(=O)N[S+](=O)([O-])Oc2c(C(C)C)cccc2C(C)C)c(C(C)C)c1,103,106,103,106,103,104,104,103,101,97,89.7,105,102,104,96.8,102,96.9,109,96.8,102,97.6,76.9,99.5,108,105,105,110,101,98.3,90.1,99.1,89.2,87
NC[C@H]1O[C@H](O[C@@H]2[C@H](O)[C@@H](O[C@H]3O[C@H](CO)[C@@H](O)[C@H](N)[C@H]3O)[C@H](N)C[C@@H]2N)[C@H](O)[C@@H](O)[C@@H]1O,126,124,124,107,120,121,117,121,112,104,107,,,,,,,,,,,,,,,,,,,,,,
COC(=O)c1ccc2c(c1)NC(=O)/C2=C(\Nc1ccc(N(C)C(=O)CN2CCN(C)CC2)cc1)c1ccccc1,105,109,102,101,92.6,101,102,102,98.6,95.9,96.9,106,102,96.1,86,101,104,101,94,102,97.3,89.3,102,104,104,90.2,101,99,95.6,93.4,99.4,86.2,93.5
CC(=O)Oc1ccccc1C(=O)Nc1ncc([N+](=O)[O-])s1,102,103,106,107,104,104,110,109,95.9,97.3,36.5,92.8,102,95.5,98.3,96,104,98.5,98.4,79.9,83.5,75.6,95.7,97.5,100,95.6,94.2,95.4,96.3,93.5,82,85.2,79.9
CN1CCCN(CC1)C2=CC=C3C(=O)\C(=C/4SC5=C(C=CC=C5)N4C3=N2)C(=O)NCC6=CN=C(C)C=N6,114,108,119,108,110,113,108,103,92.3,92.4,84.6,113,124,122,109,117,108,95.9,101,83.3,81.8,54.1,103,114,117,108,107,104,94.5,92.1,85.8,82.2,59.6
